The test system of assay [1] is ascorbate/Fe²⁺-dependent lipid peroxidation. In words: Ascorbate/Fe²⁺-dependent lipid peroxidation (2-thiobarbituric acid-reactive material). It is filed as biochemical. Conditions: concentration required to inhibit lipid peroxidation by 50%; 200 µg/ml soy bean phospholipid, 10 µM iron, 100 µM ascorbic acid, 0.1 M KPi pH 7.4, room temperature, 30 min. The text has this: (§1) The most remarkable feature of the compounds of the invention is their efficacy as free-radical scavengers or antioxidants. An assay system measuring the concentration of the compounds of formulas (IA) and (IB) required to inhibit lipid peroxidation by 50% (IC₅₀) was used. Other assays described below are the red blood cell fragility test used for measuring membrane stabilisation by indenoindoles (Table 2), and protection by indenoindoles against cytotoxicity of N-methyl-N¹-nitro-N-nitrosoguanidine (MNNG) in rat hepatocytes (Table 3). MNNG is a highly cytotoxic agent, the mechanism of action of which may involve a radical-mediated membrane destabilization.
For the ferrous/ascorbate lipid peroxidation system, 6.25 ml of 0.1 M potassium phosphate buffer (KPi), pH 7.4, was added to 12.5 mg dried soy bean phospholipids. After flushing with argon for 2 min, the suspension was sealed with five layers of Parafilm and sonicated until the suspension was translucent. The final reaction mixture was composed of 200 µg/ml phospholipid, 10 µM FeNH₄ (SO₄)₂ or Fe(NH₄)₂(SO₄)₂, and 100 µM ascorbic acid in 0.1 M KPi (pH 7.4), and the antioxidant to be tested in acetone or DMSO. The volume of vehicle never exceeded 1% of the total volume. The reaction was initiated by the addition of ascorbic acid plus iron. The reaction was continued at room temperature in a shaking water bath for 30 min and then stopped by the addition of […] of 0.5 M butylated hydroxytoluene in DMSO. The above procedure and the subsequent determination of 2-thiobarbituric acid-reactive material is described in: Shertzer, H.G. et al, Biochem. Pharmacol. 37, 333 (1988). […]

The next assay relates to red blood cells. The assay is described as follows: Red blood cell fragility test (membrane stabilization, protection from osmolysis). It is filed as cell-based, Rats. Particulars: red blood cell fragility protective index value: linear regression slope, percentage protection against osmolysis per µM protecting agent; rat blood, absorbance at 656 nm.
From the text: as §1
The membrane stabilization effect of indenoindoles was assayed by the red blood cell fragility test. Rats were anesthesized With 65 mg pentobarbital per kg body weight by i.p. injection. Blood samples were removed into a heparinized syringe from the left ventricle and diluted 20-fold with buffer containing 140 mM NaCl, 10 mM sodium citrate and 5 mM glucose (pH 7.4) at 0°C. Diluted blood was kept on ice. A 0.75 ml aliquot of blood was added to a 4 ml cuvette containing 10 µl DMSO or 10 µl of the antioxidant dissolved in DMSO vehicle. After 1 min of gentle swirling, 0.75 ml of 0.9 % NaCl or H₂O were added to the cuvette by forceful pipetting, and the absorbance at 656 nm was recorded with a Beckman DU-70 spectrophotometer. When H₂O was added in the absence of a stabilizing agent, absorbance decreased wtihin 15 sec to 0.8. Addition of NaCl instead of H₂O gave a time-independent absorbance of 2.2. In the presence of increasing concentrations of stabilizing chemicals, the absorbance decrease observed after the addition of water was diminished. The % protection from osmolysis was obtained from the equation [E(2.2- 0.8) - A/2.2-0.8)] x 100% [formula] , where A=2.2 minus the absor bance decrease when water is added in the presence of a known concentration of chemical. The % protection is then plotted against several concentrations of the chemical being treated. The red blood cell fragility protective index value (RBC-PIV) is the linear regression slope of this plot, expressed as the percentage protection against osmolysis per µM protecting agent. […]

Another assay relates to rat hepatocytes. The assay is described as follows: Protection against cytotoxic effects of MNNG in hepatocytes (trypan blue exclusion). Conditions: Hepatocyte, concentration of compound required to extend by 1 hour the time needed for MNNG (0.5 mM) to kill 50 % of the viable cells, read-out: IC₅₀. It is filed as cell-based, male Sprague-Dawley rats.
From the text: as §1
The protective effects of indenoindoles on MNNG-induced cytotoxicity was assayed with rat hepatocytes. Hepatocytes were prepared from male Sprague-Dawley rats by collagenase treatment as originally described by Zahlten and Stratman (Zahlten, R.N. and Stratman, F.W., Arch. Biochem. Biophys. 163, 600 (1988)), as modified by Reitman et al (Reitman, F.A., Shertzer, H.G. and Berger, M.L., Biochem. Pharmacol. 37,3183 (1988)). In order to improve viability, cells were centrifuged through 0.508 g/ml Percoll (Pharmacia AB, Uppsala, Sweden) in 137 mM NaCl, 8.1 mM Na₂HPO₄ and 1.5 mM KH₂PO₄ (pH 7.4). Putative protecting agents were added to the cells as solutions in DMSO, with the final concentration of DMSO never exceeding 5 µl/ml of cell suspension. MNNG was added to a concentration of 0.5 mM as a solution in ethanol, giving a final concentration of ethanol of 1%; ethanol alone was by itself without effect. Viability was determined as the percentage of cells that excluded 0.2 % trypan blue. Values are the concentration of compound required to extend by 1 hour the time needed for MNNG to kill 50 % of the viable cells.

Consider 2 molecules from patent EP0409410B1, “Indenoindole compounds” (UNIVERSITY OF BATH, priority 1989, dated 1991).

Each structure is given as a SMILES string.

`c1ccc2c(c1)C[C@H]1Nc3ccccc3[C@@H]21` (relative stereo) [iso-THII, cis-5,5a,6,10b-Tetrahydroindeno[2,1-b]indole] displayed a pIC₅₀ in assay [1] of 6.9. The same molecule had an RBC-PIV in the assay with red blood cells of 0.38 %/µM. For the same molecule, the IC50 in the assay with rat hepatocytes stood at 2 µM.
`c1ccc2c(c1)C[C@@H]1c3ccccc3N[C@H]21` (relative stereo) [THII, cis-4b,5,9b,10-Tetrahydroindeno[1,2-b]indole] returned a pIC₅₀ in assay [1] of 6.9. Besides, the RBC-PIV in the assay on red blood cells is reported as 0.41 %/µM. In addition, the IC50 with rat hepatocytes worked out at 2.2 µM.
